Measured values taken from PubChem BioAssay (NCI).
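Interpolation was linear, between the two tested concentrations surrounding the appropriate level; five concentrations were tested over 48 hours in 96-well plates. The concentration for 50% growth inhibition is given as GI50. At the TGI there is no net growth.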

Legend:
Experiment in all cases: DTP human tumour cell line panel, 48 h
A549 NSCLC = system: A549 NSCLC
A498 renal = system: A498 renal
RXF 393 renal = system: RXF 393 renal
UACC-62 melanoma = system: UACC-62 melanoma
NCI/ADR-RES ovarian = system: NCI/ADR-RES ovarian
HT29 colon = system: HT29 colon
MOLT-4 leukemia = system: MOLT-4 leukemia
ACHN renal = system: ACHN renal
MALME-3M melanoma = system: MALME-3M melanoma
SK-MEL-28 melanoma = system: SK-MEL-28 melanoma

SMILES: CCOC(=O)C1=C(Nc2ccc(OC)cc2)C(N)=NC1=N
- GI50 (A549 NSCLC): 3.73 µM
- TGI (A549 NSCLC): > 100 µM
- GI50 (A498 renal): 2.71 µM
- TGI (A498 renal): 8.11 µM
- GI50 (RXF 393 renal): 1.72 µM
- TGI (RXF 393 renal): 6.47 µM
- GI50 (UACC-62 melanoma): 2.85 µM
- TGI (UACC-62 melanoma): > 100 µM
- GI50 (NCI/ADR-RES ovarian): 3.38 µM
- TGI (NCI/ADR-RES ovarian): > 100 µM
- GI50 (HT29 colon): 2.9 µM
- TGI (HT29 colon): > 100 µM
- GI50 (MOLT-4 leukemia): 4.38 µM
- TGI (MOLT-4 leukemia): > 100 µM
- GI50 (ACHN renal): 8.84 µM
- TGI (ACHN renal): > 100 µM
- GI50 (MALME-3M melanoma): 7.29 µM
- TGI (MALME-3M melanoma): > 100 µM
- GI50 (SK-MEL-28 melanoma): 6.89 µM
- TGI (SK-MEL-28 melanoma): > 100 µM

SMILES: CCN(CC)CCOc1nc2ccccc2c2c1-c1ccc(OC)cc1C2=O
- GI50 (A549 NSCLC): 0.514 µM
- TGI (A549 NSCLC): 4.55 µM
- GI50 (A498 renal): 0.728 µM
- TGI (A498 renal): 2.18 µM
- GI50 (RXF 393 renal): 1.63 µM
- TGI (RXF 393 renal): 4.44 µM
- GI50 (UACC-62 melanoma): 1.7 µM
- TGI (UACC-62 melanoma): 4.48 µM
- GI50 (NCI/ADR-RES ovarian): 0.807 µM
- TGI (NCI/ADR-RES ovarian): 34.5 µM
- GI50 (HT29 colon): 0.334 µM
- TGI (HT29 colon): 1.54 µM
- GI50 (MOLT-4 leukemia): 0.251 µM
- TGI (MOLT-4 leukemia): 0.924 µM
- GI50 (ACHN renal): 0.364 µM
- TGI (ACHN renal): 2.02 µM
- GI50 (MALME-3M melanoma): 0.628 µM
- TGI (MALME-3M melanoma): 1.97 µM
- GI50 (SK-MEL-28 melanoma): 1.63 µM
- TGI (SK-MEL-28 melanoma): 3.29 µM

SMILES: Cc1[nH]nc(C(F)(F)F)c1Cc1sc2c(c1C(=O)N1C[C@](C)(O)CO1)c(=O)n(C)c(=O)n2C(C)C
- GI50 (A549 NSCLC): > 100 µM
- TGI (A549 NSCLC): > 100 µM
- GI50 (A498 renal): 47.3 µM
- TGI (A498 renal): > 100 µM
- GI50 (RXF 393 renal): > 100 µM
- TGI (RXF 393 renal): > 100 µM
- GI50 (UACC-62 melanoma): > 100 µM
- TGI (UACC-62 melanoma): > 100 µM
- GI50 (NCI/ADR-RES ovarian): > 100 µM
- TGI (NCI/ADR-RES ovarian): > 100 µM
- GI50 (HT29 colon): > 100 µM
- TGI (HT29 colon): > 100 µM
- GI50 (MOLT-4 leukemia): > 100 µM
- TGI (MOLT-4 leukemia): > 100 µM
- GI50 (ACHN renal): > 100 µM
- TGI (ACHN renal): > 100 µM
- GI50 (MALME-3M melanoma): > 100 µM
- TGI (MALME-3M melanoma): > 100 µM
- GI50 (SK-MEL-28 melanoma): > 100 µM
- TGI (SK-MEL-28 melanoma): > 100 µM

SMILES: Cc1cc(OCc2ccc(C(F)(F)F)cc2)c2c(c1)C(=O)C=C(NCCN1CCCC1)C2=O
- GI50 (A549 NSCLC): 2.85 µM
- TGI (A549 NSCLC): 9.68 µM
- GI50 (A498 renal): 2.69 µM
- TGI (A498 renal): 12.8 µM
- GI50 (RXF 393 renal): 1.37 µM
- TGI (RXF 393 renal): 2.94 µM
- GI50 (UACC-62 melanoma): 1.82 µM
- TGI (UACC-62 melanoma): 3.51 µM
- GI50 (NCI/ADR-RES ovarian): 6.04 µM
- TGI (NCI/ADR-RES ovarian): 20.5 µM
- GI50 (HT29 colon): 1.94 µM
- TGI (HT29 colon): 5.01 µM
- GI50 (MOLT-4 leukemia): 3.03 µM
- TGI (MOLT-4 leukemia): 10.1 µM
- GI50 (ACHN renal): 1.97 µM
- TGI (ACHN renal): 4.08 µM
- GI50 (MALME-3M melanoma): 2.09 µM
- TGI (MALME-3M melanoma): 3.95 µM
- GI50 (SK-MEL-28 melanoma): 1.69 µM
- TGI (SK-MEL-28 melanoma): 3.36 µM

SMILES: COc1cc(OC)c(/C=C/C(=O)c2c(OC)cc(OC)cc2OC)c(OC)c1
- GI50 (A549 NSCLC): 1.72 µM
- TGI (A549 NSCLC): > 76.3 µM
- GI50 (A498 renal): 0.27 µM
- TGI (A498 renal): 4.85 µM
- GI50 (RXF 393 renal): 1.3 µM
- TGI (RXF 393 renal): 4.99 µM
- GI50 (UACC-62 melanoma): 0.414 µM
- TGI (UACC-62 melanoma): 4.14 µM
- GI50 (NCI/ADR-RES ovarian): 0.469 µM
- TGI (NCI/ADR-RES ovarian): 10 µM
- GI50 (HT29 colon): 0.381 µM
- TGI (HT29 colon): 2.1 µM
- GI50 (MOLT-4 leukemia): 1.53 µM
- TGI (MOLT-4 leukemia): > 100 µM
- GI50 (ACHN renal): 2.3 µM
- TGI (ACHN renal): > 100 µM
- GI50 (MALME-3M melanoma): 1.07 µM
- TGI (MALME-3M melanoma): > 100 µM
- GI50 (SK-MEL-28 melanoma): 0.855 µM
- TGI (SK-MEL-28 melanoma): 5.24 µM

SMILES: COc1cc2c(cc1OCC(=O)Nc1ccc(Cl)cc1C(=O)c1ccccc1Cl)N=CC1CCCN1C2=O (stereo not given)
- GI50 (A549 NSCLC): 16.8 µM
- TGI (A549 NSCLC): 33 µM
- GI50 (A498 renal): 12.3 µM
- TGI (A498 renal): 24.9 µM
- GI50 (RXF 393 renal): 4.31 µM
- TGI (RXF 393 renal): 15.6 µM
- GI50 (UACC-62 melanoma): 15.2 µM
- TGI (UACC-62 melanoma): 29.2 µM
- GI50 (NCI/ADR-RES ovarian): 21.5 µM
- TGI (NCI/ADR-RES ovarian): 64.8 µM
- GI50 (HT29 colon): 11.9 µM
- TGI (HT29 colon): 34.2 µM
- GI50 (MOLT-4 leukemia): 4.44 µM
- TGI (MOLT-4 leukemia): 28.2 µM
- GI50 (ACHN renal): 11.5 µM
- TGI (ACHN renal): 23.8 µM
- GI50 (MALME-3M melanoma): 20.1 µM
- TGI (MALME-3M melanoma): 37 µM
- GI50 (SK-MEL-28 melanoma): 19.9 µM
- TGI (SK-MEL-28 melanoma): 36.4 µM
